# Experimental data: PubChem BioAssay AID330 (DTP/NCI, 2004)
# Where “and” joins values, the source holds several entries; their conditions need not be identical. Equal values may be shown once. Inconclusive results and toxic doses are left out.
# System: P388 leukemia ip, CD2F1 mice, survival T/C
# Test: NCI In Vivo Anticancer Drug Screen. Data for tumor model P388 Leukemia (intraperitoneal) in CD2F1 (CDF1) mice
# Settings: endpoint: median survival time, higher = longer survival
# Procedure, shortened: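 Mice carrying the transplanted tumor received test compound or vehicle. Survival was recorded in each group, and the value is the treated-group measurement divided by that of the vehicle-treated control group.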
# [1] = dose: 50.0 mg/kg/injection, schedule: Q01DX009 (ip), vehicle: Klucel (hydroxypropylcellulose) (HPC)
# [2] = dose: 100.0 mg/kg/injection, schedule: Q01DX009 (ip), vehicle: Klucel (hydroxypropylcellulose) (HPC)
# [3] = dose: 200.0 mg/kg/injection, schedule: Q01DX009 (ip), vehicle: Klucel (hydroxypropylcellulose) (HPC)
smiles,measurement,setting,value
NNC(=O)CCc1c[nH]c2ccccc12,T/C,"dose: 50.0 mg/kg/injection, schedule: Q01DX001 (ip), vehicle: saline with Tween-80",100 % of control
same,T/C,"dose: 100.0 mg/kg/injection, schedule: Q01DX001 (ip), vehicle: saline with Tween-80",96 % of control
same,T/C,"dose: 200.0 mg/kg/injection, schedule: Q01DX001 (ip), vehicle: saline with Tween-80",111 % of control
same,T/C,"dose: 400.0 mg/kg/injection, schedule: Q01DX001 (ip), vehicle: saline with Tween-80",111 % of control
CCn1ncc(N=O)c1N,T/C,"dose: 60.0 mg/kg/injection, schedule: Q01DX005 (ip), vehicle: saline",104 % of control and 100 % of control
same,T/C,"dose: 120.0 mg/kg/injection, schedule: Q01DX005 (ip), vehicle: saline",92 % of control and 104 % of control
same,T/C,"dose: 240.0 mg/kg/injection, schedule: Q01DX005 (ip), vehicle: saline",90 % of control and 108 % of control
CN=C(N)NN=C(c1ccccc1)c1ccccc1,T/C,"dose: 25.0 mg/kg/injection, schedule: Q04DX002 (ip), vehicle: saline with Tween-80",104 % of control
same,T/C,"dose: 50.0 mg/kg/injection, schedule: Q04DX002 (ip), vehicle: saline with Tween-80",109 % of control
same,T/C,"dose: 100.0 mg/kg/injection, schedule: Q04DX002 (ip), vehicle: saline with Tween-80",110 % of control
CC(C)CC(NP(=S)(c1ccccc1)c1ccccc1)C(=O)O (stereo not drawn),T/C,[1],111 % of control
same,T/C,[2],105 % of control
same,T/C,[3],108 % of control
CN1C2(c3ccccc3)OC(=O)C1(c1ccccc1)C1C(=O)C3C4c5ccccc5C(c5ccccc54)C3C(=O)C12 (stereo not drawn),T/C,[1],94 % of control
same,T/C,[2],100 % of control
same,T/C,[3],94 % of control
NS(=O)(=O)OCCCCCCCOS(N)(=O)=O,T/C,"dose: 6.0 mg/kg/injection, schedule: Q01DX005 (iv), vehicle: other",109 % of control
same,T/C,"dose: 6.7 mg/kg/injection, schedule: Q04DX003 (ip), vehicle: other",121 % of control
same,T/C,"dose: 8.98 mg/kg/injection, schedule: Q01DX005 (ip), vehicle: other",122 % of control
same,T/C,"dose: 8.98 mg/kg/injection, schedule: Q01DX005 (iv), vehicle: other",112 % of control
same,T/C,"dose: 10.0 mg/kg/injection, schedule: Q04DX003 (ip), vehicle: other",119 % of control
same,T/C,"dose: 11.0 mg/kg/injection, schedule: Q03HX009 (ip), vehicle: other",160 % of control
same,T/C,"dose: 13.4 mg/kg/injection, schedule: Q01DX005 (iv), vehicle: other",118 % of control
same,T/C,"dose: 16.5 mg/kg/injection, schedule: Q03HX009 (ip), vehicle: other",171 % of control
same,T/C,"dose: 16.67 mg/kg/injection, schedule: Q01DX009 (ip), vehicle: other",168 % of control
same,T/C,"dose: 20.0 mg/kg/injection, schedule: Q01DX001 (iv), vehicle: other",105 % of control
same,T/C,"dose: 20.0 mg/kg/injection, schedule: Q01DX005 (ip), vehicle: other",150 % of control and 159 % of control
same,T/C,"dose: 22.5 mg/kg/injection, schedule: Q03HX003 (ip), vehicle: other",158 % of control
same,T/C,"dose: 24.9 mg/kg/injection, schedule: Q01DX009 (ip), vehicle: other",184 % of control
same,T/C,"dose: 25.0 mg/kg/injection, schedule: Q01DX005 (ip), vehicle: saline with Tween-80",152 % of control and 163 % of control
same,T/C,"dose: 25.0 mg/kg/injection, schedule: Q03HX009 (ip), vehicle: other",206 % of control
same,T/C,"dose: 30.0 mg/kg/injection, schedule: Q01DX001 (ip), vehicle: other",124 % of control
same,T/C,"dose: 30.0 mg/kg/injection, schedule: Q01DX001 (iv), vehicle: other",111 % of control
same,T/C,"dose: 30.0 mg/kg/injection, schedule: Q01DX005 (ip), vehicle: other",161 % of control and 181 % of control
same,T/C,"dose: 33.3 mg/kg/injection, schedule: Q04DX003 (ip), vehicle: other",164 % of control
same,T/C,"dose: 34.0 mg/kg/injection, schedule: Q03HX003 (ip), vehicle: other",174 % of control
same,T/C,"dose: 37.0 mg/kg/injection, schedule: Q03HX009 (ip), vehicle: other",232 % of control
same,T/C,"dose: 37.2 mg/kg/injection, schedule: Q01DX009 (ip), vehicle: other",222 % of control
same,T/C,"dose: 37.2 mg/kg/injection, schedule: Q01DX009 (oral), vehicle: other",124 % of control
same,T/C,"dose: 44.0 mg/kg/injection, schedule: Q01DX005 (ip), vehicle: other",192 % of control
same,T/C,"dose: 44.89 mg/kg/injection, schedule: Q01DX005 (ip), vehicle: other",194 % of control
same,T/C,"dose: 44.9 mg/kg/injection, schedule: Q01DX001 (iv), vehicle: other",112 % of control
same,T/C,"dose: 50.0 mg/kg/injection, schedule: Q03HX003 (ip), vehicle: other",210 % of control
same,T/C,"dose: 50.0 mg/kg/injection, schedule: Q04DX003 (ip), vehicle: other",185 % of control
same,T/C,"dose: 55.6 mg/kg/injection, schedule: Q01DX009 (ip), vehicle: other",123 % of control
same,T/C,"dose: 67.0 mg/kg/injection, schedule: Q01DX001 (ip), vehicle: other",151 % of control
same,T/C,"dose: 74.8 mg/kg/injection, schedule: Q04DX003 (ip), vehicle: other",212 % of control
same,T/C,"dose: 82.9 mg/kg/injection, schedule: Q01DX009 (oral), vehicle: other",109 % of control
same,T/C,"dose: 100.0 mg/kg/injection, schedule: Q01DX001 (ip), vehicle: other",164 % of control
same,T/C,"dose: 111.6 mg/kg/injection, schedule: Q04DX003 (ip), vehicle: other",210 % of control
same,T/C,"dose: 125.0 mg/kg/injection, schedule: Q01DX005 (ip), vehicle: saline with Tween-80",156 % of control
same,T/C,"dose: 150.0 mg/kg/injection, schedule: Q01DX001 (ip), vehicle: other",205 % of control
same,T/C,"dose: 200.0 mg/kg/injection, schedule: Q01DX005 (ip), vehicle: saline with Tween-80",117 % of control
